According to patent US20120012123A1, “COMPOSITIONS, ARTICLES AND METHODS FOR PREVENTING OR REDUCING TOBACCO-ASSOCIATED DAMAGE” (Technion Research & Development Foundation Ltd., priority 2007, published 2012):

What was measured:
[1] = system: H1299 human lung cancer cells; test: H1299 cells survival after cigarette smoke (CS) exposure with/without saliva, Trypan Blue exclusion test; assay type: cell-based
Description: During smoke exposure, the cells were put into a smoking sealed chamber (33.5 cm^3) with CS pressure of 0.3 Bar. Control cells were subjected to the same procedures, but exposed only to fresh air. Cells were exposed to CS for one “puffs” every 15 minute for a 2 hours (120 minutes) period (unless indicated otherwise). Cells were used when it becomes confluent and the medium (with/without saliva) volume was compatibly to the dish in use.
The H1299 cells viability was measured at various time points by Trypan Blue exclusion test, both in exposed and control cells.
The medium covering the dish was collected and cells were trypsinized and centrifuged at 1200×g for 10 minutes. Cell pellets were re-suspended in 1 mL of medium and a sample was collect for cell counting. Cells were stained with the vital dye Trypan Blue at final concentration of 0.25% and were placed on hemocytometer. Visual counting was preformed by inverted microscope.
H1299 cells were incubated for 120 minutes with or without the presence of saliva in the culture medium and exposed to CS. […] Cell viability was evaluated by Trypan blue exclusion dye assay.

p53 = test: Total p53 expression levels, Western blot analysis; assay type: cell-based, human; details: 2 mM GSH, exposure of CS 120 minutes and 33% saliva (FIG. 17)
Description: Western blot analysis was used to assay the protein expression levels of the P53, using β-actin signal as a loading reference. Samples with equal amount of protein (20 μg protein/lane) were prepared in 2× sample buffer (0.125 M 2-amino-2-(hydroxymethyl)propane-1,3-diol (Tris)-HCl, pH 6.8, glycerol (20% v/v), SDS (4% w/v), 0.14 M β-mercaptoethanol and bromophenol blue (0.005% w/v)). The samples were boiled for 10 minutes and subjected to electrophoresis through 12% SDS-polyacrylamide gel in running buffer, or stored at −20° C. until further use. The gels were then electrophoretically transferred to nitrocellulose membranes for 90 minutes at 90 W, in transfer buffer containing 20 mM Tris-HCl, pH 6.8, 150 mM Glycine and 20% (v/v) methanol. Blots were blocked in 5% non-fat milk in PBS-T (62.5 mM sodium phosphate buffer, pH 7.4, containing 100 mM NaCl and 0.1% (v/v) Tween-20) and then incubated for 2 hours or overnight at 4° C. with rabbit antihuman p53 1:5000 or mouse antihuman β-actin 1:15000. […] Binding of antibodies to the membrane was detected with an EZ-ECL-detection reagent, X-Omat blue XB-1 Kodak scientific Imaging Film for 10 seconds-15 minutes.
The effect of CS on p53 accumulation was analyzed. […] Western blot analysis was performed and the amount of p53 was evaluated.

[2] = system: oral cancer cells (SCC-25); test: Oral cancer cells (SCC-25) survival after CS exposure with/without saliva, Trypan blue assay; assay type: cell-based; details: 5 mM PenA, CS 120 minutes
Description: In FIG. 18A, (n=14) and (p=0.0024) and in […], (n=7) and (p=0.015).
Similar results were obtained with oral cancer cells (SCC-25).

H1299 lung cancer cells = test: Mitochondrial membrane potential (ΔΨm), JC-1 incorporation by flow cytometry; assay type: cell-based, human; details: 5 mM agent
Description: (§1) For mitochondrial oxidative damage, pellets were re-suspended in 0.5 ml of 10 μg/ml 10-N-nonyl acridine orange (NAO) and incubated for 30 minutes at 37° C. and dark condition. Mitocondrial membrane potential was measured after staining cells with 1 μg/ml JC-1 (5,5′,6,6′-tetrachloro-1,1′,3,3′-tetraethylbenzimidazolyl carbocyanine iodide; Molecular Probes) for 30 minutes at 37° C. in the dark. Uncoupling with carbonyl cyanide p-trifluoromethoxyphenylhydrazone (FCCP) (20 µM for 30 minutes) was used as positive control.
Mitochondrial membrane permeabilization is an essential step leading to apoptosis. Disruption of ΔΨm irreversibly commits cells to undergo death and is an early marker of apoptosis. Furthermore, cigarette smoke was previously shown to induce mitochondrial depolarization in human monocytes. Therefore, reduced ΔΨm, as measured by diminished incorporation of the fluorescent dye JC-1, was used as an early indicator for CS-induced apoptosis.
H1299 lung cancer calls were exposed for 120 minutes to CS with or without saliva. […] JC-1 incorporation was measured by flow cytometry method.

H1299 cells [3] = test: Cell viability by Propidium Iodide (PI) fluorescence, flow cytometry, after CS exposure; assay type: cell-based, human; details: mean ± SD, n = 4
Description: FACS was used to monitor cell-cycle and cell-viability after CS exposure with/without saliva presence. After cells were exposed to ROS attack, medium covering the cells was removed and cells were trypsinized. For cell viability, cell suspension was centrifuged at 1200×g for 10 minutes and the pellets were re-suspended in 0.5 ml of 10 μg/ml Propidium iodide (PI) and incubated for 15 minutes at dark condition, 4° C. The cell suspensions were thereafter analyzed with a flow cytometer, using CellQuest software. […] PI is excluded by viable cells, and penetrates to cell membranes of dead cells. H1299 cells were incubated for 120 minutes with or without the presence of saliva in the culture medium and exposed to CS. […] Cell viability was evaluated by fluorescence assay.

H1299 lung cells = test: Mitochondrial oxidative damage, NAO binding to cardiolipin by flow cytometry; assay type: cell-based, human; details: 5 mM agent, 120 minutes of CS exposure (FIG. 15)
Description: as §1
The mitochondrial quality is the amount of all the intra-cellular mitochondria and their content, and it is an important index of mitochondrial injury. Nonyl-Acridine Orange (NAO) is a fluorescent dye that can bind specifically to unoxidizable cardiolipin (CL), a mitochondrial phospholipid, independent of the mitochondria energetic state (ΔΨm). NAO lost its affinity for CL with a hydroperoxide fatty acid (CL-OOH).
NAO flow cytometry was used to measure the quality of H1299 lung cells exposed for 120 minutes to CS with or without saliva.

H1299 cells [4] = test: Protein carbonyl assay (ELISA) on H1299 cells exposed to CS; assay type: cell-based, human; details: 5 mM PenA
Description: Protein carbonyl concentration was determined by enzyme-linked immunosorbent assay (ELISA), using the Zentech PC Test Kit (Zenith Technology, Dunedin, New Zealand). Briefly, protein cell extractions were allowed to react with a dinitrophenylhydrazine (DNP) solution (200 μl). The DNP-reacted proteins bound non-specifically to an ELISA plate, and the unconjugated DNP and non-protein entities were washed away. The adsorbed DNP-protein was then probed with an anti-DNP-biotin antibody, followed by a streptavidin-linked HRP probe. Then the […] reagent that contained peroxide was added to catalyze the oxidation of TMB. Finally, the reaction was stopped by the addition of a stopping reagent (acid, provided with the kit), and the absorbance was measured for each well at 450 nm using a spectrophotometer. Along with controls and samples, protein carbonyl standards were also included in the assay. The content of the carbonyl protein in the mitochondrial samples was determined as pmol/mg protein, using the standard curve.

CC(=O)N(O)CCCCCNC(=O)CCC(=O)N(O)CCCCCNC(=O)CCC(=O)N(O)CCCCCN [DES, deferoxamine]
cellular death rate ([1]; 5 mM DES, CS 120 minutes and saliva (FIG. 12)): 20.5%

N[C@@H](CCC(=O)N[C@@H](CS)C(=O)NCC(=O)O)C(=O)O [GSH, L-c-glutamyl-L-cysteinyl-glycine]
prevention of p53 downregulation (in words) (p53): totally preventing
protection of cell survival (in words) ([1]; 2 mM GSH, CS exposure alone, no saliva): no additional protection
increase of cell survival ([1]; 2 mM GSH, CS exposure, saliva-containing medium (30% v/v) (FIG. 9)): more than 50%

CC(C)(S)[C@@H](N)C(=O)O [PenA, D-penicillamine]
survival loss ([2]; absence of saliva (FIG. 18A)): 23%
survival loss ([2]; saliva added to medium (FIG. 18B)): 22%
protection against ΔΨm losses (in words) (H1299 lung cancer cells; CS 120 minutes alone, no saliva (FIG. 14)): strong protection
protection against ΔΨm losses (in words) (H1299 lung cancer cells; CS 120 minutes and 33% saliva (FIG. 14)): no significant change
effect on survival rate, 1 mM versus 5 mM (in words) ([1]; 1 mM and 5 mM PenA, CS exposure, medium or medium + 30% saliva (FIG. 7)): dose-dependent effect
reduction of cells loss ([1]; 5 mM PenA, 120 minutes of exposure to CS, medium without saliva): 25%
survival rate ([1]; 5 mM PenA, CS 120 minutes, medium + 30% saliva (FIG. 7)): 76.4%
survival rate ([1]; 5 mM PenA, CS 120 minutes, medium alone, no saliva (FIG. 7)): 75.5%
reduction of cells loss (in words) ([1]; 5 mM PenA, saliva supplemented to the medium prior to exposure to CS): Reduction of cells loss was also observed
increase of cells survival ([1]; PenA, CS 120 minutes, medium alone, percent of control (FIG. 6A)): 12%
increase of cell survival ([1]; PenA, CS 120 minutes, saliva-containing medium (30% v/v), percent of control (FIG. 6A)): 20%
Positive dead cells (%) (H1299 cells [3]; CS 120 minutes + 5 mM PenA + saliva): 2.33%
Positive dead cells (%) (H1299 cells [3]; CS 120 minutes + 5 mM PenA, no saliva): 2.98%
Positive dead cells (%) (H1299 cells [3]; Medium + 5 mM PenA + saliva, no CS): 4.15%
Positive dead cells (%) (H1299 cells [3]; Medium + 5 mM PenA, no CS, no saliva): 3.75%
amount of NAO bound to mitochondrial CL (in words) (H1299 lung cells): the same
protein carbonyl content (H1299 cells [4]; CS 60 minutes and saliva (FIG. 11)): 4.02 nmol/mg protein
protein carbonyl content (H1299 cells [4]; CS 60 minutes, medium alone (FIG. 11)): 4.45 nmol/mg protein
